Consider three compounds from US20250017942A1, “Prevention and treatment of osteoarticular diseases by inhibiting acetylcholinesterase” (priority 2021, published 2025).

In experiment [1] the target is AChE (rat cortex homogenate) (Rattus norvegicus, UniProt P37136). Kind of experiment: biochemical. Type of experiment: biochemical. The settings on record: for IC50: rat cortex homogenate, in the presence of ethopropazine as a specific BuChE inhibitor.
In experiment [2] the test system is RAW 264.7 cells. Kind of experiment: RANKL-induced osteoclastogenesis of RAW 264.7 cells. The conditions noted are these: RAW 264.7, RANKL 15 ng/ml 3 days, 0.1, 0.5 and 1 μM (FIG. 9). The experiment is classed as cell-based, mouse.
For experiment [3], the system named is ATDC5 cells. Kind of experiment: IL-1β-stimulated ATDC5 cells, marker expression by qPCR. The conditions noted are these: 10 ng/ml IL-1β, 24 h, qPCR (FIG. 3A). Type of experiment: cell-based, mouse. In general terms: In qPCR the cycle at which signal appears reflects the starting amount.

Counter-ions that a name gives are not always drawn.

Sequence of AChE (rat cortex homogenate) (P37136 32-614): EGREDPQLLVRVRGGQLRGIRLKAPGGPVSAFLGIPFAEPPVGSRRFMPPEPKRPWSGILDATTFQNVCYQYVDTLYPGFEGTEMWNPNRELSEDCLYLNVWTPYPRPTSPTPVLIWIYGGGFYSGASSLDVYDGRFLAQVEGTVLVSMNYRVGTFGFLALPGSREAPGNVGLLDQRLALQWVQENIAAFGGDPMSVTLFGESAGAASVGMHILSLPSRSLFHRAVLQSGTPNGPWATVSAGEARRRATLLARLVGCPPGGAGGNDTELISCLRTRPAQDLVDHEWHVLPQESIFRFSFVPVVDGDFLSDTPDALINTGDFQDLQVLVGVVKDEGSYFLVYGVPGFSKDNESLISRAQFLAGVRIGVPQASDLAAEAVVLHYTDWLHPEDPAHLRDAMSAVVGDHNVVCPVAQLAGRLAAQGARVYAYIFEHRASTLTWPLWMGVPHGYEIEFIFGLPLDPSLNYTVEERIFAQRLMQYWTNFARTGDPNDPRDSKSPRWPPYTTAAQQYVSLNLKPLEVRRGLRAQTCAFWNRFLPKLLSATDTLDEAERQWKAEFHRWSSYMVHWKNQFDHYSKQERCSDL

The term IC50 denotes the concentration at which inhibition is half-maximal. Take `O=c1ccc2c([nH]1)CCCC2NCCCCCCCCCCCNC1CCCc2[nH]c(=O)ccc21` (stereo not drawn) [E11E]: the IC50 in experiment [1] worked out at 84 ± 5 nM.

Regarding `O=c1ccc2c([nH]1)CCC[C@@H]2NCCCCCCCCCCCCN[C@H]1CCCc2[nH]c(=O)ccc21` [E12E, (S,S)-(−)-N, N′-di-5′-(5′, 6′7′,8′-tetrahydroquinolin-2-onyl)-1,12-diaminododecane, bis-hydrochloride], the Osteoclastogenesis result in experiment [2] was “suppressed osteoclastogenesis in a dose-dependent manner”. Also, the “Pro-inflammatory cytokine expression after IL-1β stimulation” value in experiment [3] is “down-regulating key pro-inflammatory cytokines including TNF-alpha”. In addition, in experiment [1], the “Potency in inhibiting rat brain AChE relative to HA” value is recorded as “about twice as potent as HA” and the “Potency in inhibiting rat brain AChE relative to tacrine” value was “about 4.4 times”.

On to `O=c1ccc2c([nH]1)CCCC2NCCCCCCCCCCCCCNC1CCCc2[nH]c(=O)ccc21` (stereo not drawn) [E13E], for which the IC50 in experiment [1] was determined as 52 ± 9 nM.
